From publication PMC5218480 (PLoS ONE, 2017) come the findings set out here.

The experiment deals with MV-4-11 cells. As to the kind of experiment: Gene expression microarray analysis (Affymetrix PrimeView) and GSEA. The experiment is classed as cell-based, human. Conditions: MV-4-11 cells, 48 hours. The arrangement: RFU PODN (11730768_x_at) / Fold change /veh PODN (11730768_x_at) / RFU LINC00158 (11744669_a_at) / Fold change /veh LINC00158 (11744669_a_at) / RFU DUSP10 (11751237_a_at) / Fold change /veh DUSP10 (11751237_a_at) / RFU ID3 (11757404_x_at) / Fold change /veh ID3 (11757404_x_at) / RFU PLEKHG5 (11737974_s_at) / Fold change /veh PLEKHG5 (11737974_s_at) / RFU LRRC4B (11730491_at) / Fold change /veh LRRC4B (11730491_at) / RFU GIMAP4 (11747438_a_at) / Fold change /veh GIMAP4 (11747438_a_at) / RFU KRT8 (11758183_x_at) / Fold change /veh KRT8 (11758183_x_at) / RFU CNN1 (11734310_a_at) / Fold change /veh CNN1 (11734310_a_at) / RFU VPS37D (11726825_at) / Fold change /veh VPS37D (11726825_at) / RFU C10orf10 (11716522_x_at) / Fold change /veh C10orf10 (11716522_x_at) / RFU KIR2DL2 /// KIR2DL4 /// KIR2DL5A /// KIR2DL5B /// KIR2DS1 /// KIR2DS2 /// KIR2DS3 /// KIR2DS4 /// KIR3DL3 /// KIR3DL3 /// KIR3DS1 (11738374_at) / Fold change /veh KIR2DL2 /// KIR2DL4 /// KIR2DL5A /// KIR2DL5B /// KIR2DS1 /// KIR2DS2 /// KIR2DS3 /// KIR2DS4 /// KIR3DL3 /// KIR3DL3 /// KIR3DS1 (11738374_at) / RFU C1QL1 (11718748_at) / Fold change /veh C1QL1 (11718748_at) / RFU TMPRSS4 (11747572_a_at) / Fold change /veh TMPRSS4 (11747572_a_at) / RFU HAMP (11756126_x_at) / Fold change /veh HAMP (11756126_x_at) / RFU RNFT2 (11725882_a_at) / Fold change /veh RNFT2 (11725882_a_at) / RFU NR4A2 (11747474_a_at) / Fold change /veh NR4A2 (11747474_a_at) / RFU ABCC12 (11746883_a_at) / Fold change /veh ABCC12 (11746883_a_at) / RFU TMEM136 (11760407_x_at) / Fold change /veh TMEM136 (11760407_x_at) / RFU CLDN22 /// WWC2 (11732394_at) / Fold change /veh CLDN22 /// WWC2 (11732394_at) / RFU HLA-DPB1 (11760878_x_at) / Fold change /veh HLA-DPB1 (11760878_x_at) / RFU SPINT1 (11716480_a_at) / Fold change /veh SPINT1 (11716480_a_at) / RFU GAP43 (11754022_s_at) / Fold change /veh GAP43 (11754022_s_at) / RFU A4GNT (11735810_at) / Fold change /veh A4GNT (11735810_at) / RFU PRB3 (11715151_x_at) / Fold change /veh PRB3 (11715151_x_at) / RFU TUBB4B (11761932_at) / Fold change /veh TUBB4B (11761932_at) / RFU CAPN14 (11732068_a_at) / Fold change /veh CAPN14 (11732068_a_at) / RFU TMCC2 (11721928_a_at) / Fold change /veh TMCC2 (11721928_a_at) / RFU IRGQ (11745062_a_at) / Fold change /veh IRGQ (11745062_a_at) / RFU FAM174B (11720279_a_at) / Fold change /veh FAM174B (11720279_a_at) / RFU TMPRSS4 (11748680_a_at) / Fold change /veh TMPRSS4 (11748680_a_at) / RFU FAM212B (11763350_a_at) / Fold change /veh FAM212B (11763350_a_at) / RFU PLEKHG5 (11743358_a_at) / Fold change /veh PLEKHG5 (11743358_a_at) / RFU ZSCAN30 (11745921_a_at) / Fold change /veh ZSCAN30 (11745921_a_at) / RFU CMKLR1 (11741424_a_at) / Fold change /veh CMKLR1 (11741424_a_at) / RFU LOC101060620 /// MAPK8IP1 (11723275_at) / Fold change /veh LOC101060620 /// MAPK8IP1 (11723275_at) / RFU SPTSSB (11747773_x_at) / Fold change /veh SPTSSB (11747773_x_at) / RFU PRSS12 (11739890_at) / Fold change /veh PRSS12 (11739890_at) / RFU BIN1 (11741810_x_at) / Fold change /veh BIN1 (11741810_x_at) / RFU WNT11 (11732464_a_at) / Fold change /veh WNT11 (11732464_a_at) / RFU C10orf10 (11716521_a_at) / Fold change /veh C10orf10 (11716521_a_at) / RFU C5orf56 (11738089_at) / Fold change /veh C5orf56 (11738089_at) / RFU CYB561 (11721691_x_at) / Fold change /veh CYB561 (11721691_x_at) / RFU ANKRD19P (11752326_a_at) / Fold change /veh ANKRD19P (11752326_a_at) / RFU OR2T12 /// OR2T33 /// OR2T8 (11738714_s_at) / Fold change /veh OR2T12 /// OR2T33 /// OR2T8 (11738714_s_at) / RFU VCAN (11748164_a_at) / Fold change /veh VCAN (11748164_a_at) / RFU JSRP1 (11732532_at) / Fold change /veh JSRP1 (11732532_at) / RFU KRTAP10-11 (11738290_x_at) / Fold change /veh KRTAP10-11 (11738290_x_at) / RFU MYO3A (11730013_a_at) / Fold change /veh MYO3A (11730013_a_at) / RFU EBF3 (11725865_a_at) / Fold change /veh EBF3 (11725865_a_at) / RFU CAMK2N1 (11719241_x_at) / Fold change /veh CAMK2N1 (11719241_x_at) / RFU C5orf56 (11738088_a_at) / Fold change /veh C5orf56 (11738088_a_at) / RFU OLFML3 (11715873_a_at) / Fold change /veh OLFML3 (11715873_a_at) / RFU LOC100653217 /// NTM (11731650_a_at) / Fold change /veh LOC100653217 /// NTM (11731650_a_at) / RFU MAPK11 (11762145_a_at) / Fold change /veh MAPK11 (11762145_a_at) / RFU FIZ1 (11724087_x_at) / Fold change /veh FIZ1 (11724087_x_at) / RFU OASL (11726364_x_at) / Fold change /veh OASL (11726364_x_at) / RFU SOX15 (11748057_x_at) / Fold change /veh SOX15 (11748057_x_at) / RFU CD79A (11719716_a_at) / Fold change /veh CD79A (11719716_a_at) / RFU HIST1H1D (11736915_at) / Fold change /veh HIST1H1D (11736915_at) / RFU CASKIN2 (11723855_a_at) / Fold change /veh CASKIN2 (11723855_a_at) / RFU LOC730098 (11760151_x_at) / Fold change /veh LOC730098 (11760151_x_at) / RFU OR4N2 (11742367_at) / Fold change /veh OR4N2 (11742367_at) / RFU PRRT2 (11749266_a_at) / Fold change /veh PRRT2 (11749266_a_at) / RFU SNX32 (11753110_a_at) / Fold change /veh SNX32 (11753110_a_at) / RFU CDHR5 (11726645_a_at) / Fold change /veh CDHR5 (11726645_a_at) / RFU RCAN1 (11760418_a_at) / Fold change /veh RCAN1 (11760418_a_at) / RFU FAM167A (11723789_a_at) / Fold change /veh FAM167A (11723789_a_at) / RFU FAM26E (11764081_at) / Fold change /veh FAM26E (11764081_at) / RFU ISYNA1 (11749810_s_at) / Fold change /veh ISYNA1 (11749810_s_at) / RFU ACY1 (11761880_at) / Fold change /veh ACY1 (11761880_at) / RFU 11764098_at / Fold change /veh 11764098_at / RFU SAMD14 (11745864_x_at) / Fold change /veh SAMD14 (11745864_x_at) / RFU NPB (11741838_a_at) / Fold change /veh NPB (11741838_a_at) / RFU TMPRSS6 (11731388_a_at) / Fold change /veh TMPRSS6 (11731388_a_at) / RFU KRTAP10-2 (11738614_at) / Fold change /veh KRTAP10-2 (11738614_at) / RFU ARHGAP8 /// PRR5-ARHGAP8 (11727945_x_at) / Fold change /veh ARHGAP8 /// PRR5-ARHGAP8 (11727945_x_at) / RFU KRTAP5-7 /// NADSYN1 (11734609_at) / Fold change /veh KRTAP5-7 /// NADSYN1 (11734609_at) / RFU RASL12 (11751679_a_at) / Fold change /veh RASL12 (11751679_a_at) / RFU CDKN2B (11736163_a_at) / Fold change /veh CDKN2B (11736163_a_at) / RFU PRF1 (11729649_at) / Fold change /veh PRF1 (11729649_at) / RFU, ZNF638 /// ZNF638-IT1 / Fold change vs veh, ZNF638 /// ZNF638-IT1 / RFU, PANK3 / Fold change vs veh, PANK3 / RFU, SH3YL1 / Fold change vs veh, SH3YL1 / RFU, ZEB2 / Fold change vs veh, ZEB2 / RFU, NRIP1 / Fold change vs veh, NRIP1 / RFU, PTTG1IP / Fold change vs veh, PTTG1IP / RFU, CAPN2 / Fold change vs veh, CAPN2 / RFU, MED14 / Fold change vs veh, MED14 / RFU, SNORA58 / Fold change vs veh, SNORA58 / RFU, C1orf63 / Fold change vs veh, C1orf63 / RFU, LRRFIP1 / Fold change vs veh, LRRFIP1 / RFU, NDUFAF7 / Fold change vs veh, NDUFAF7 / RFU, SLC12A2 / Fold change vs veh, SLC12A2 / RFU, IBTK / Fold change vs veh, IBTK / RFU, ESF1 / Fold change vs veh, ESF1 / Fold change vs veh, TMEM50B / RFU, TAOK1 / Fold change vs veh, TAOK1 / RFU, ACBD3 / Fold change vs veh, ACBD3 / RFU, TMA16 / Fold change vs veh, TMA16 / RFU, RWDD3 / Fold change vs veh, RWDD3 / RFU, BCAT1 / Fold change vs veh, BCAT1 / RFU, EDEM3 / Fold change vs veh, EDEM3 / RFU, TMEM33 / Fold change vs veh, TMEM33 / RFU, WDR75 / Fold change vs veh, WDR75 / RFU, AHCTF1 / Fold change vs veh, AHCTF1 / RFU, TFRC / Fold change vs veh, TFRC / RFU, ZDHHC17 / Fold change vs veh, ZDHHC17 / RFU, NOM1 / Fold change vs veh, NOM1 / RFU, ARL8B / Fold change vs veh, ARL8B / RFU, ZBTB11 / Fold change vs veh, ZBTB11 / RFU, TAMM41 / Fold change vs veh, TAMM41 / RFU, KIAA1704 /// LOC100996395 / Fold change vs veh, KIAA1704 /// LOC100996395 / RFU, ING1 / Fold change vs veh, ING1 / RFU, TRMT61B / Fold change vs veh, TRMT61B / RFU, FUBP3 / Fold change vs veh, FUBP3 / RFU, TP53 / Fold change vs veh, TP53 / RFU, TNKS2 / Fold change vs veh, TNKS2 / RFU, ZFP14 / Fold change vs veh, ZFP14 / RFU, ACTR2 / Fold change vs veh, ACTR2 / RFU, PPP3R1 / Fold change vs veh, PPP3R1 / RFU, PIK3R1 / Fold change vs veh, PIK3R1 / RFU, HNRNPA1 / Fold change vs veh, HNRNPA1 / RFU, RNF170 / Fold change vs veh, RNF170 / RFU, ZNF28 / Fold change vs veh, ZNF28 / RFU, RNGTT / Fold change vs veh, RNGTT / RFU, OGT / Fold change vs veh, OGT / RFU, BRD1 / Fold change vs veh, BRD1 / RFU, MARS / Fold change vs veh, MARS / RFU, ZNF655 / Fold change vs veh, ZNF655 / RFU, FAHD1 / Fold change vs veh, FAHD1 / RFU, BDP1 / Fold change vs veh, BDP1 / RFU, LRRCC1 / Fold change vs veh, LRRCC1 / RFU, ARID1A / Fold change vs veh, ARID1A / RFU, ZNF146 / Fold change vs veh, ZNF146 / RFU, ZNF330 / Fold change vs veh, ZNF330 / RFU, GPN3 / Fold change vs veh, GPN3 / RFU, C9orf123 / Fold change vs veh, C9orf123 / RFU, N4BP2L2 / Fold change vs veh, N4BP2L2 / RFU, ARFIP1 / Fold change vs veh, ARFIP1 / RFU, FAM179B / Fold change vs veh, FAM179B / RFU, BCL10 / Fold change vs veh, BCL10 / RFU, UHRF1BP1L / Fold change vs veh, UHRF1BP1L / RFU, BET1 / Fold change vs veh, BET1 / RFU, CNOT2 / Fold change vs veh, CNOT2 / RFU, ZNF268 / Fold change vs veh, ZNF268 / Fold change vs veh, ZNF507 / RFU, DGCR2 / Fold change vs veh, DGCR2 / RFU, WDSUB1 / Fold change vs veh, WDSUB1 / Fold change vs veh, HSP90B1 /// MIR3652 / RFU, ADSS / Fold change vs veh, ADSS / RFU, GK / Fold change vs veh, GK / RFU, ZNF148 / Fold change vs veh, ZNF148 / RFU, TAF9 / Fold change vs veh, TAF9 / RFU, SLC1A5 / Fold change vs veh, SLC1A5 / RFU, SLMO2 / Fold change vs veh, SLMO2 / RFU, ABCC4 / Fold change vs veh, ABCC4 / RFU, LOC101060439 /// RAP1B / Fold change vs veh, LOC101060439 /// RAP1B / RFU, RFX7 / Fold change vs veh, RFX7 / RFU, GTPBP10 / Fold change vs veh, GTPBP10 / RFU, CNEP1R1 / Fold change vs veh, CNEP1R1 / RFU, BIVM-ERCC5 /// ERCC5 / Fold change vs veh, BIVM-ERCC5 /// ERCC5 / RFU, ILF3 / Fold change vs veh, ILF3 / RFU 11762660_at / Fold change /veh 11762660_at / RFU VCAN (11757783_s_at) / Fold change /veh VCAN (11757783_s_at) / RFU DDX43 (11728927_at) / Fold change /veh DDX43 (11728927_at) / RFU KRT8 (11758188_x_at) / Fold change /veh KRT8 (11758188_x_at) / RFU NKD1 (11759106_at) / Fold change /veh NKD1 (11759106_at) / RFU SRD5A1 (11742802_a_at) / Fold change /veh SRD5A1 (11742802_a_at) / RFU TPSAB1 /// TPSB2 (11721975_s_at) / Fold change /veh TPSAB1 /// TPSB2 (11721975_s_at) / RFU GSTM3 (11746129_a_at) / Fold change /veh GSTM3 (11746129_a_at) / RFU IL23R (11737362_x_at) / Fold change /veh IL23R (11737362_x_at) / RFU TMEM51 (11727254_a_at) / Fold change /veh TMEM51 (11727254_a_at) / RFU PIWIL2 (11732686_x_at) / Fold change /veh PIWIL2 (11732686_x_at) / RFU ORM1 (11744905_x_at) / Fold change /veh ORM1 (11744905_x_at) / RFU CCDC152 (11743942_at) / Fold change /veh CCDC152 (11743942_at) / RFU ECM1 (11717891_a_at) / Fold change /veh ECM1 (11717891_a_at) / RFU IL23R (11748794_a_at) / Fold change /veh IL23R (11748794_a_at) / RFU TNFAIP8L3 (11732012_x_at) / Fold change /veh TNFAIP8L3 (11732012_x_at) / RFU MBOAT4 (11741988_at) / Fold change /veh MBOAT4 (11741988_at) / RFU 11764193_at / Fold change /veh 11764193_at / RFU TMEM53 (11763286_at) / Fold change /veh TMEM53 (11763286_at) / RFU MAGEB2 (11727129_at) / Fold change /veh MAGEB2 (11727129_at) / RFU TMEM200A (11744735_a_at) / Fold change /veh TMEM200A (11744735_a_at) / RFU CCDC152 (11751479_a_at) / Fold change /veh CCDC152 (11751479_a_at) / RFU FAM211A (11726209_a_at) / Fold change /veh FAM211A (11726209_a_at) / RFU RGS16 (11746705_a_at) / Fold change /veh RGS16 (11746705_a_at) / RFU VCAN (11755009_s_at) / Fold change /veh VCAN (11755009_s_at) / RFU RHOB (11743442_s_at) / Fold change /veh RHOB (11743442_s_at) / RFU RGS16 (11720943_a_at) / Fold change /veh RGS16 (11720943_a_at) / RFU RGS16 (11720944_at) / Fold change /veh RGS16 (11720944_at) / RFU, VPS4B / Fold change vs veh, VPS4B / RFU, CREB1 / Fold change vs veh, CREB1 / RFU, DNAJC13 / Fold change vs veh, DNAJC13 / RFU, GNAQ / Fold change vs veh, GNAQ / RFU, CDK5R1 / Fold change vs veh, CDK5R1 / RFU, ZRANB3 / Fold change vs veh, ZRANB3 / RFU, CUL4A / Fold change vs veh, CUL4A / RFU, CCNY / Fold change vs veh, CCNY / RFU, UFL1 / Fold change vs veh, UFL1 / RFU, COG3 / Fold change vs veh, COG3 / RFU, DIAPH2 / Fold change vs veh, DIAPH2 / RFU, SKA2 / Fold change vs veh, SKA2 / RFU, AFF3 / Fold change vs veh, AFF3 / RFU, LMF1 / Fold change vs veh, LMF1 / RFU, IPO11 / Fold change vs veh, IPO11 / RFU, DFFB / Fold change vs veh, DFFB / RFU, FOXP1 / Fold change vs veh, FOXP1 / RFU, CARD8 / Fold change vs veh, CARD8 / RFU, STRN3 / Fold change vs veh, STRN3 / RFU, ADK / Fold change vs veh, ADK / RFU, RASSF2 / Fold change vs veh, RASSF2 / RFU, WIPF1 / Fold change vs veh, WIPF1 / RFU, LARP1B / Fold change vs veh, LARP1B / RFU, RASA1 / Fold change vs veh, RASA1 / RFU, RB1 / Fold change vs veh, RB1 / RFU, PPFIA1 / Fold change vs veh, PPFIA1 / RFU, MAT2A / Fold change vs veh, MAT2A / RFU, CCT5 / Fold change vs veh, CCT5 / RFU, WDR92 / Fold change vs veh, WDR92 / RFU, CUX1 / Fold change vs veh, CUX1 / RFU, TTC7A / Fold change vs veh, TTC7A / RFU, TMEM135 / Fold change vs veh, TMEM135 / RFU, DEPTOR / Fold change vs veh, DEPTOR / RFU, CPM / Fold change vs veh, CPM / RFU, DNAJB6 / Fold change vs veh, DNAJB6 / RFU, CACNA2D3 / Fold change vs veh, CACNA2D3 / RFU, DTX4 / Fold change vs veh, DTX4 / RFU, TFCP2 / Fold change vs veh, TFCP2 / RFU, GMCL1 /// GMCL1P1 / Fold change vs veh, GMCL1 /// GMCL1P1 / RFU, AEBP2 / Fold change vs veh, AEBP2 / RFU, SNHG1 /// SNORD22 /// SNORD25 /// SNORD26 /// SNORD27 /// SNORD28 /// SNORD29 /// SNORD31 / Fold change vs veh, SNHG1 /// SNORD22 /// SNORD25 /// SNORD26 /// SNORD27 /// SNORD28 /// SNORD29 /// SNORD31 / Fold change (Aza/veh), C12orf56 (ProbeSet 11735607_a_at) / Fold change (ACY-1035/veh), C12orf56 (ProbeSet 11735607_a_at) / Fold change (Aza/veh), FGFR1OP (ProbeSet 11751329_s_at) / Fold change (ACY-1035/veh), FGFR1OP (ProbeSet 11751329_s_at) / Fold change (Aza/veh), VPS36 (ProbeSet 11739960_a_at) / Fold change (ACY-1035/veh), VPS36 (ProbeSet 11739960_a_at) / RFU SYPL1 (11715823_x_at) / Fold change /veh SYPL1 (11715823_x_at) / RFU IGFBP7 (11715501_s_at) / Fold change /veh IGFBP7 (11715501_s_at) / RFU REEP3 (11722064_at) / Fold change /veh REEP3 (11722064_at) / RFU IGLL1 (11728026_x_at) / Fold change /veh IGLL1 (11728026_x_at): dose or concentration left out as unconfirmed.

For `Nc1ccc(-c2cccs2)cc1NC(=O)c1ccc2c(c1)cc(C1CC1)n2CCN1CCOCC1` [ACY-1035], the “RFU CYB561 (11721691_x_at)” value is listed as 11.94 RFU.
